One data set has as its target VEGF-2 (Homo sapiens, UniProt P35968). As to the kind of experiment: Inhibition of VEGF-2 (flashplate assay). The note with it: flashplate method. It counts as biochemical. In short, it runs like this:
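Kinase incubated 3 hr at room temperature with ^33P-ATP and biotinylated poly(Glu, Tyr)4:1, with or without test substance. Stopped with EDTA, wells washed after 30 min; incorporated radioactivity counted by scintillation and IC50 calculated.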

The target of the next data set is TIE2 (Homo sapiens, UniProt Q02763). The data set is described as follows: Inhibition of TIE2 (flashplate assay). The note with it: flashplate method. The class given is biochemical. The essentials:
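Radiometric flashplate kinase assay: TIE2 incubated 3 h at room temperature with ³³P-ATP and biotinylated poly(Glu,Tyr) 4:1, with or without test compound. Reaction stopped with EDTA, wells washed, incorporated radioactivity counted by scintillation; IC50 calculated from the data.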

Another data set deals with T1, TGFβR1 (Homo sapiens, UniProt P36897).
T1 sequence (P36897 34-503): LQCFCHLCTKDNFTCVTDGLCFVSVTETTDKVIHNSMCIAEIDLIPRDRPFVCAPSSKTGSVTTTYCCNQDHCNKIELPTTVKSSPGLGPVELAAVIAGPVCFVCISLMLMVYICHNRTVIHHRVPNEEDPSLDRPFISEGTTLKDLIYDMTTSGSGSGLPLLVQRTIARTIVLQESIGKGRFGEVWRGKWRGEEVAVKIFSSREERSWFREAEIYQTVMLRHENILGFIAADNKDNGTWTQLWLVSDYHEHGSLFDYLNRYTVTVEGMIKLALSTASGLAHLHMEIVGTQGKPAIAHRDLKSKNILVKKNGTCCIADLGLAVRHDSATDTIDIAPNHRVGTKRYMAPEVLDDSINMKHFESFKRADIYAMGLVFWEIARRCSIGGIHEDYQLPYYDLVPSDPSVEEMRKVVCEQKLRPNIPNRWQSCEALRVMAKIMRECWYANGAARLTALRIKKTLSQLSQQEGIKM
The data set is described as follows: Inhibition of TGFβR1 (flashplate assay). The class given is biochemical. The note with it: flashplate method. The essentials:
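Kinase was incubated 45 min with 33P-ATP and biotinylated substrate, with or without test substances, then stopped with EDTA. Incorporated radioactivity was counted by scintillation in a flashplate format. IC50 values were calculated from the counts.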

Another data set has as its target IGF1R (Homo sapiens, UniProt P08069). The data set is described as follows: Inhibition of IGF1R (flashplate assay). The note with it: flashplate method. The class given is biochemical. The essentials:
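IGF1R kinase incubated 1 hr at room temperature with ^33P-ATP and biotinylated poly(Glu,Tyr)4:1 ± test compound; stopped with EDTA, wells washed after 30 min. Bound radioactivity counted by scintillation; IC50 calculated.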

Another data set has as its target FAK (Homo sapiens, UniProt Q05397). The data set is described as follows: Inhibition of FAK (flashplate assay). The class given is biochemical. Conditions: flashplate method. The protocol:
The test plates used are 384-well flashplate microtitre plates from Perkin Elmer (USA). The components of the kinase reaction are pipetted into the assay plate. The FAK kinase is incubated for 3 hr. with radioactively labelled ^33P-ATP in the presence and absence of test substances in a total volume of 100 μl at room temperature together with biotinylated poly(Glu, Tyr)4:1. The reaction is terminated using 25 μl of a 200 mM EDTA solution. After incubation for a further 30 min at room temperature, the supernatants are removed by suction, and the wells are washed three times with 100 μl of 0.9% NaCl solution each time. The radioactivity is measured using a Topcount scintillation counter (PerkinElmer, USA). IC50 values are calculated using the RS1 computer program.

A short description of data set [1]: Solubility in phosphate buffer by the shake flask method. The class given is physicochemical. Conditions: pH 7.0, 37° C., 24 h shake flask; for solubility at 24 h: 37 °C, pH 7, aqueous buffer, thermodynamic from solid. The protocol: The procedure described in Glomme et al. (J. Pharm. Sci. 94(1): 1-16, 2005) is followed. The concentration determination is carried out by HPLC with UV detection against a standard solution.
Buffer: 3.954 g of sodium dihydrogenphosphate monohydrate 6.024 g of sodium chloride +950 ml of ultrapure water. Setting of pH 7.0 using 0.1 M NaOH or 0.1 M HCl.
The samples were shaken at 37° C. and 450 rpm for 24 h. After about 7 h, the pH of the samples was checked and adjusted if necessary. It was checked whether the sample was still present in excess. Just before the end of the 24 h shaking time, the samples were again checked for pH and a precipitate.
• Ultrapure water plant: MilliQ gradient, Millipore, unit: F3PN37462D • Shaker: TiMix control, Bühler • Incubation hood: TH 15, Bühler • pH meter: 766 Calimatic Knick instrument: pH 1 • pH electrode: InLab 423 Mettler • HPLC: column: LiChroCart 125-4 LiChrospher 100 RP-18 • flow rate: 1.000 ml/min • eluents: • eluent A: 2 ml of diethylamine, for synthesis+1000 ml of methanol, LiChrosolv • eluent B: 5 g of ammonium acetate, for analysis+5 ml of methanol, LiChrosolv+995 ml of ultrapure water

Values after ≈ are worked out from the molar mass of the structure shown.

Sequence of FAK (Q05397 whole entry, species assumed): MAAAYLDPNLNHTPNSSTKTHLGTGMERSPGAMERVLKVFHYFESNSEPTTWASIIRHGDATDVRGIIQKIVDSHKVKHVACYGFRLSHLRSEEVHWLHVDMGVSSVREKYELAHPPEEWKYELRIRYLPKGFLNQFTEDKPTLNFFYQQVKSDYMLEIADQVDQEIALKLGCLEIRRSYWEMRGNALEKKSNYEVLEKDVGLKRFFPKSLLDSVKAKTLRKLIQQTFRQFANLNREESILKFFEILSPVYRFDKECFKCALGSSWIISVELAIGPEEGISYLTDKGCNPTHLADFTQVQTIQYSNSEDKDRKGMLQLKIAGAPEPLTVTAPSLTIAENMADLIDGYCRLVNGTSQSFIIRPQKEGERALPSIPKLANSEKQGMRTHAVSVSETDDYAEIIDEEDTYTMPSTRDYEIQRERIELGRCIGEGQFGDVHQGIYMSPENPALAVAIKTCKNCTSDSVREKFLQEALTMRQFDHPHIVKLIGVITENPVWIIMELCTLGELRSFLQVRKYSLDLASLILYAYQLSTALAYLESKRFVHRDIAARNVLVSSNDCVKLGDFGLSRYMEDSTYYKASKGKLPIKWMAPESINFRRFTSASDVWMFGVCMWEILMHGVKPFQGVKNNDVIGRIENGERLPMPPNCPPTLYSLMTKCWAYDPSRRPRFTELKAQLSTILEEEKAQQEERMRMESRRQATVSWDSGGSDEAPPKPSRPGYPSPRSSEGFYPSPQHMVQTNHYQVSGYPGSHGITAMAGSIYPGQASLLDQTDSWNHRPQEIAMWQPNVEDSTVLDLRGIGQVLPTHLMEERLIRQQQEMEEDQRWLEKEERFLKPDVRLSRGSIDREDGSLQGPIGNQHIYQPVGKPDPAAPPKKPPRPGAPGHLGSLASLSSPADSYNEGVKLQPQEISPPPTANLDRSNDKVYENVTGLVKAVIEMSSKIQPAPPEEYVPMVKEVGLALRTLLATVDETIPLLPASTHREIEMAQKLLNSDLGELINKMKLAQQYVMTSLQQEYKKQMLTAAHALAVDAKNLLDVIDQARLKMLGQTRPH
Sequence of VEGF-2 (P35968 20-1356): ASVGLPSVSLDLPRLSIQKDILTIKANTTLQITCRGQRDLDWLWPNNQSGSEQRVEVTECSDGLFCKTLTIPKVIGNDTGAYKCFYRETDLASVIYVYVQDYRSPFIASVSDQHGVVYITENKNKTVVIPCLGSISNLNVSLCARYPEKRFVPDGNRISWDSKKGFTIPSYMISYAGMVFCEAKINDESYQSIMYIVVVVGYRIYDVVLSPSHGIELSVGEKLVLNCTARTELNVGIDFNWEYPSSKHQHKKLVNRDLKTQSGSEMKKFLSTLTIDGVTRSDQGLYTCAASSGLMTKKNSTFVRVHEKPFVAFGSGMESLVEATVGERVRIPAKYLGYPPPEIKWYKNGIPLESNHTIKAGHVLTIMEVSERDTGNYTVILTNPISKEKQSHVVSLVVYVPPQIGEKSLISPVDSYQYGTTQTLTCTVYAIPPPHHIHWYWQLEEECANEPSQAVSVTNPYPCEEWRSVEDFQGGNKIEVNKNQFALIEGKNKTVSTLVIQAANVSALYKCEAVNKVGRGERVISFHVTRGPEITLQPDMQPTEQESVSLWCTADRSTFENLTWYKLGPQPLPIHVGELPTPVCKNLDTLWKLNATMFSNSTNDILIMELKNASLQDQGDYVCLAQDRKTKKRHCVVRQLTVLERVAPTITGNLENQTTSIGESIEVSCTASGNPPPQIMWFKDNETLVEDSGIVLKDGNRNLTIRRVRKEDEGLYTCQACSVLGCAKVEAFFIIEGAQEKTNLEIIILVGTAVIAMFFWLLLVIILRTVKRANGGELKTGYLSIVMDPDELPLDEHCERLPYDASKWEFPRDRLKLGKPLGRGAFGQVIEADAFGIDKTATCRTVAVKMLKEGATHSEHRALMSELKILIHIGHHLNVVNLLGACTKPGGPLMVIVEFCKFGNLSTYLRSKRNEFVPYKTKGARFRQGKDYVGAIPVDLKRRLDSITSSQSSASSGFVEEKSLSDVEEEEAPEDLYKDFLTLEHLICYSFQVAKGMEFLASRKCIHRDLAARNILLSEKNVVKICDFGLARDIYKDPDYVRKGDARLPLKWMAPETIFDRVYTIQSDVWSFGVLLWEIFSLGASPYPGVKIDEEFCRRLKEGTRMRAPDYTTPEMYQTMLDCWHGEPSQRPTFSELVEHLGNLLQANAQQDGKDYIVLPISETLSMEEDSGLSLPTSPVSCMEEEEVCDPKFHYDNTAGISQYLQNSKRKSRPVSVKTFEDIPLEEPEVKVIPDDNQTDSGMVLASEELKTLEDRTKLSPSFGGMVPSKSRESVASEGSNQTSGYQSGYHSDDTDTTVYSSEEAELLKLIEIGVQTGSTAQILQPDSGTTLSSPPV
Sequence of IGF1R (P08069 31-1367, species assumed): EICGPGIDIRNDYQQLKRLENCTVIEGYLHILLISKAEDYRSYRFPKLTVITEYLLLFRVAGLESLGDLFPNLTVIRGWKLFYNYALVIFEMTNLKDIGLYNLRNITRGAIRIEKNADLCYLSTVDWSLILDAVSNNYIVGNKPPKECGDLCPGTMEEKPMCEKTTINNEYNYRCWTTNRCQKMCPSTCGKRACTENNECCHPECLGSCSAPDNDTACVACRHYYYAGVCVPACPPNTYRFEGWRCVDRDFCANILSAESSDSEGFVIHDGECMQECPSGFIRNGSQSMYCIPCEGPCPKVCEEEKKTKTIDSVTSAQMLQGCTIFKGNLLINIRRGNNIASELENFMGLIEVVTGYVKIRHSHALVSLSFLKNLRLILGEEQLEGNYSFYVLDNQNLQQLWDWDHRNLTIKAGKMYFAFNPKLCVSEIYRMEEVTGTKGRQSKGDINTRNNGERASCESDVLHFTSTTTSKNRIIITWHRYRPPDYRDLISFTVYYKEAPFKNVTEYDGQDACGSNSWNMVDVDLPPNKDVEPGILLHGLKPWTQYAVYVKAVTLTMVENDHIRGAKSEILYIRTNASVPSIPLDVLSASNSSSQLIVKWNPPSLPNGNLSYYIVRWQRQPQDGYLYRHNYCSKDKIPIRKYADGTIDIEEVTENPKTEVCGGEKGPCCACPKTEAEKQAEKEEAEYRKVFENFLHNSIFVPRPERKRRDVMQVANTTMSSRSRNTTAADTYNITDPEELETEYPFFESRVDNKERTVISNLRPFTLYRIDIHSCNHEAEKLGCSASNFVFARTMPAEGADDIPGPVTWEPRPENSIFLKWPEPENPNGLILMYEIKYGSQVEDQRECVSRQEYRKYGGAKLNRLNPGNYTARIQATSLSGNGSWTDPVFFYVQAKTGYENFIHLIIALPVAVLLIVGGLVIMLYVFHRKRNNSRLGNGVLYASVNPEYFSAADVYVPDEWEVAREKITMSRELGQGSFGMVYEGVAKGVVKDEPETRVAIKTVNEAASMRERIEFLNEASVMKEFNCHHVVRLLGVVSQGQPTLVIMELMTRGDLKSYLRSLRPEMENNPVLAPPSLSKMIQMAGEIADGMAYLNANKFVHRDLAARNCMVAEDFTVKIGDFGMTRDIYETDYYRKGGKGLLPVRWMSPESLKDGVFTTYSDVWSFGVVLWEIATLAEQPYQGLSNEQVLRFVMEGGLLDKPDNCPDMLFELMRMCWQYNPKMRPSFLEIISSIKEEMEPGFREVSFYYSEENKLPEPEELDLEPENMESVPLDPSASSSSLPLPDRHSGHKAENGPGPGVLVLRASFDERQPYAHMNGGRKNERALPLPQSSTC
Sequence of TIE2 (Q02763 23-1124, species assumed): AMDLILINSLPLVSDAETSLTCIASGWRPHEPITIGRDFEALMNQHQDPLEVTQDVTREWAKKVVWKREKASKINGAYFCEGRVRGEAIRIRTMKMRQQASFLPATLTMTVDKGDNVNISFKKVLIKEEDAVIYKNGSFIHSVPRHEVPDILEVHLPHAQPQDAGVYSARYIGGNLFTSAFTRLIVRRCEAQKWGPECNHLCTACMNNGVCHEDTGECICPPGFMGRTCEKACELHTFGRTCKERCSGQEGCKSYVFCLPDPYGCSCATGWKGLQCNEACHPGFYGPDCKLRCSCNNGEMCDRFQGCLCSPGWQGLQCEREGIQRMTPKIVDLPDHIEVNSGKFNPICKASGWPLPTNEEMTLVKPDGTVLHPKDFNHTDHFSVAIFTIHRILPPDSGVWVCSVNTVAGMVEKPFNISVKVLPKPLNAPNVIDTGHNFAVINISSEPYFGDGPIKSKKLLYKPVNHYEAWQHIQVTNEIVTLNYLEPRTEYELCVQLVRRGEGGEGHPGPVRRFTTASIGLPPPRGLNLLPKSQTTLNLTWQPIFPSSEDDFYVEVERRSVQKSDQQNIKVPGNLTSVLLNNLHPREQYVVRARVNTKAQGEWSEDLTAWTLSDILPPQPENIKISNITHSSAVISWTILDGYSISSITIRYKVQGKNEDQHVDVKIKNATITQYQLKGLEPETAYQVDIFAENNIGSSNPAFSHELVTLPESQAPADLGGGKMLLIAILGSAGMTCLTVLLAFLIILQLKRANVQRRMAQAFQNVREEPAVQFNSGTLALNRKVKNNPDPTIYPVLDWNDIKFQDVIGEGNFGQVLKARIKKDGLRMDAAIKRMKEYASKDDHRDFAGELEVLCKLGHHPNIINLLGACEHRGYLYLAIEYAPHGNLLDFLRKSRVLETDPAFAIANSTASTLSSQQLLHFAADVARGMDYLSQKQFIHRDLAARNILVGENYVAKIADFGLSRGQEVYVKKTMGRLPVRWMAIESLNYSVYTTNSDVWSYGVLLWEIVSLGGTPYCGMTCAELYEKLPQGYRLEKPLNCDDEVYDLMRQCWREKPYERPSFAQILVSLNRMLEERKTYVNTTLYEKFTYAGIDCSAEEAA

In general, IC50 refers to the concentration needed to halve the response being measured. Low values mean greater potency in that assay, high ones weaker potency in that assay. As to `NCC1CC(n2cc(-c3cc4ccccc4o3)c3c(N)ncnc32)C1` (centres unmarked) [Compound 37], the IC50 stood at 160 nM against VEGF-2, 1100 nM on TIE2, 210 nM against TGFβR1 and 8400 nM against IGF1R.
A word on the solubility: it is the concentration that dissolves in the medium under given conditions. Read a low solubility as a poorly soluble substance. As for `Nc1ncnc2c1c(-c1cccc(O)c1)cn2C1CC(CN2CCCC2)C1` (centres unmarked) [Compound 1, 3-[4-amino-7-(3-pyrrolidin-1-ylmethylcyclobutyl)-7H-pyrrolo[2,3-d]pyrimidin-5-yl]phenol], the IC50 at VEGF-2 is 180 nM; on FAK, 1800 nM; against TIE2, 520 nM; on TGFβR1, 120 nM; on IGF1R it was 60 nM. This compound also showed a solubility at 24 h in data set [1] of 1070 µg/mL (≈ 2.95 mM).
On to `Nc1ncnc2c1c(-c1cccc(O)c1)cn2C1CC(CN2CCCC2)C1` (centres unmarked) [Compound 2, 3-[4-Amino-7-(3-pyrrolidin-1-ylmethylcyclobutyl)-7H-pyrrolo[2,3-d]pyrimidin-5-yl]phenol], for which the IC50 against VEGF-2 was 195 nM; at FAK it was 2700 nM; against TIE2, 870 nM; against TGFβR1, 140 nM; at IGF1R it was 110 nM. Further, the Solubility was 1147 µg/mL (≈ 3.16 mM) in data set [1] and 1147 (tosylate) μg/ml in data set [1] (listed as 3-[4-Amino-7-(3-pyrrolidin-1-ylmethylcyclobutyl)-7H-pyrrolo[2,3-d]pyrimidin-5-yl).
Regarding `NCC1CC(n2cc(-c3ccc4[nH]ccc4c3)c3c(N)ncnc32)C1` (centres unmarked) [Compound 3, 7-(3-Aminomethylcyclobutyl)-5-(1H-indol-5-yl)-7H-pyrrolo[2,3-d]pyrimidin-4-ylamine], the concentration for half-maximal inhibition (IC50) against VEGF-2 stood at 10 nM; against FAK, 7900 nM; against TIE2, 380 nM; at TGFβR1 it was 180 nM; at IGF1R, 930 nM. In data set [1], the solubility at 24 h is 1330 µg/mL (≈ 3.99 mM).

For the origin of these results see patent publication US20100160356A1, “NOVEL CYCLOBUTYL COMPOUNDS AS KINASE INHIBITORS” (priority 2006, published 2010).
